Values joined by “and” are separate entries in the source; they are usually repeats but may differ in a detail not shown here. Equal entries are not always repeated.

Five molecules from patent US20130337564A1, “Treatment of Pluripotent Cells” (Janssen Biotech, Inc., priority 2012, published 2013) can be followed below.

Assay [1] concerns human embryonic stem cell line H1. In words: Dose titration secondary assay: cell number, H1. In kind it is cell-based. The settings on record: positive control (Wnt3a/Activin A) normalized to 1.000; for activity at 0.156 µM / activity at 0.313 µM / activity at 0.625 µM / activity at 1.25 µM / activity at 2.5 µM / activity at 5 µM / activity at 10 µM: Homo sapiens, Embryonic stem cell. Here is the method:
It was important to confirm the activity of hits identified from primary screening and further analyze the range of activity by dose titration. New samples of a selective subset of primary screening hits were obtained as dry powders, solubilized to make fresh stock reagents, and diluted into secondary confirmation assays to evaluate effects on human embryonic stem cells.
Culture of two human embryonic stem cells (H1 and H9) was conducted as described in Example 1. Colonies of cells were maintained in an undifferentiated, pluripotent state on Matrigel™ ([…]) coated polystyrene plastic, using a 1:30 dilution of Matrigel™ in DMEM:F12 to coat the surface. Cells were split by enzymatic passage every four days on average. Passage was performed by exposing cell monolayers to a solution of collagenase (1 mg/ml; Sigma-Aldrich) for 10 to 60 minutes at 37° C. followed by gentle scraping with a pipette tip to recover cell clusters. Clusters were allowed to sediment by gravity, then washed to remove residual collagenase. Cell clusters were split at a 1:3 ratio for maintenance culture or a 1:1 ratio for subsequent assay. The human embryonic stem cell lines were maintained at less than passage 50 and routinely evaluated for normal karyotypic phenotype and absence of mycoplasma contamination.
Cell clusters of the H1 or H9 human embryonic stem cell lines used in the assay were evenly resuspended in culture medium and plated onto Matrigel™-coated 96-well Packard VIEWPLATES (PerkinElmer) in volumes of 100 μl/well. MEF conditioned medium supplemented with 8 ng/ml bFGF was used for initial plating and expansion. Daily feeding was conducted by aspirating spent culture medium from each well and replacing with an equal volume of fresh medium. Cultures were allowed to expand one to three days after plating prior to initiating assay. Plates were maintained at 37° C., 5% CO2 in a humidified box for the duration of assay.
A subset of hits resulting from primary screening was used for follow-up study and subsequent secondary assays. Twenty compounds available as dry powders were solubilized as 10 mM stocks in DMSO and stored dessicated at […] until use Immediately prior to assay, compound stocks were diluted 1:1000 to make 10 μM test compound in DMEM:F12 base medium (Invitrogen) supplemented with 0.5% FCS (HyClone) and 100 ng/ml Activin A (R&D Biosystems). This was further diluted two-fold in series to make a seven point dilution curve for each compound, also in DMEM:F12 base medium with 0.5% FCS and 100 ng/ml Activin A.
Assay was initiated by aspirating culture medium from cell monolayers in each well followed by three washes in PBS to remove residual growth factors and serum. Test volumes of 100 μl per well were added back containing medium with 0.5% FCS and different concentrations of inhibitor compounds with 100 ng/ml Activin A, without Wnt3a. Positive control wells contained the same base medium with 0.5% FCS and with 20 ng/ml Wnt3a (R&D Biosystems) in the absence of test compound. Negative control wells contained the same base medium with 0.5% FCS, in the absence of Activin A, Wnt3a, or test compound. Assay wells were aspirated and fed again with identical concentrations of test compound or control solutions on day 2 of assay. On days 3 and 4, all assay wells were aspirated and fed with DMEM:F12 supplemented with 2% FCS and 100 ng/ml Activin A in the absence of both test compound or Wnt3a. Parallel negative control wells were maintained on days 3 and 4 in DMEM:F12 base medium with 2% FCS.
At the end of culture, cells in 96-well plates were washed twice with PBS then fixed with 4% paraformaldehyde at room temperature for 20 minutes, washed three times more with PBS, and then permeabilized with 0.5% Triton X-100 for 20 minutes at room temperature. After fixing and permeabilizing, cells were washed again three times with PBS and then blocked with 4% chicken serum (Invitrogen) in PBS for 30 minutes at room temperature. […]

Assay [2] concerns human embryonic stem cells (H9 or H1 lines). The assay is described as follows: Plate reader (MTS) proliferation assay. In kind it is cell-based. The settings on record: for % Control Value (proliferation) / activity at 10 µM: 10 μM test compound with 100 ng/ml activin A on days 1-2, MTS OD490 on day 4, vs Activin A/Wnt3a positive control, strong and moderate hits; for Average: average of replicate raw data; for Raw Data: replicate wells, plate reader proliferation screen of GSK-3B inhibitors; for activity at 10 µM: Homo sapiens, Embryonic stem cell, 96 h. Put shortly: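 H9 or H1 cells on Matrigel, washed, then given DMEM:F12 with 0.5% FCS, 100 ng/ml activin A and 10 μM compound (days 1–2), then 2% FCS plus activin A (days 3–4). MTS added day 4, OD490 read after 1.5–4 h at 37 °C; triplicates as percent of activin A/Wnt3a control.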

Consider `CCN1CCOCCOCCn2cc(c3ccccc32)C2=C(C(=O)NC2=O)c2cn(c3ccccc23)CC1` [Compound 103, 14-Ethyl-6,7,9,10,13,14,15,16-octahydro-12H,23H-5,26:17,22-di(metheno)dibenzo[k,q]pyrrolo[3,4-n][1,4,7,10,19]dioxatriacyclohenicosine-23,25(24H)-dione], for which the Cell number in assay [1] (Conc 0.156 μM) is given as 1.027; in assay [1] (Conc 0.313 μM), 1.028; in assay [1] (Conc 0.625 μM) it was 0.921; in assay [1] (Conc 1.25 μM), 0.897; in assay [1] (Conc 2.5 μM), 0.566; in assay [1] (Conc 5 μM), 0.034. In addition, in assay [1] (Conc 10 μM), the Cell number amounted to 0.001. For the same molecule, the “% Control Value (proliferation)” value in assay [2] stood at 68.7%. In addition, in assay [2], the Average came out at 0.5236. Moreover, the “Raw Data” value in assay [2] was 0.7125 and 0.3347.

On to `O=C1NC(=O)C2=C1c1cn(c3ccccc13)CCOCCOCCN(Cc1cccc3ccccc13)CCn1cc2c2ccccc21` [Compound 136, 14-(Naphthalen-1-ylmethyl)-6,7,9,10,13,14,15,16-octahydro-12H,23H-5,26:17,22-di(metheno)dibenzo[k,q]pyrrolo[3,4-n][1,4,7,10,19]dioxatriazacyclohenicosine-23,25(24H)-dione], for which the Cell number in assay [1] (Conc 0.156 μM) is given as 0.742; in assay [1] (Conc 0.313 μM) it was 0.868; in assay [1] (Conc 0.625 μM) it was 0.910; in assay [1] (Conc 1.25 μM) it was 0.850; in assay [1] (Conc 2.5 μM), 0.428; in assay [1] (Conc 5 μM), 0.173. The same molecule showed a Cell number in assay [1] (Conc 10 μM) of 0.058. Further, in assay [2], the “% Control Value (proliferation)” value is 128.8% and 125.7%. In addition, the Average in assay [2] was 0.9509 and 0.9309. Besides, the “Raw Data” value in assay [2] was 0.8618 and 1.0400 and 0.8430 and 1.0187.

For the molecule `O=C1NC(=O)C(c2cn(CCOCCOCCO)c3ccccc23)=C1c1cn(CCO)c2ccccc12` [Compound 110, 3-[1-(2-Hydroxyethyl)-1H-indol-3-yl]-4-{1-[2-({2-[(2-hydroxyethyl)oxy]ethyl}oxy)ethyl]-1H-indol-3-yl}-1H-pyrrole-2,5-dione], the activity at 0.156 µM in assay [1] (Conc 0.156 μM) came out at 97.4%. Also, the activity at 0.313 µM in assay [1] (Conc 0.313 μM) amounted to 116%. The activity at 0.625 µM in assay [1] (Conc 0.625 μM) was determined as 119%. Besides, the activity at 1.25 µM in assay [1] (Conc 1.25 μM) was 111%. Further, the activity at 2.5 µM in assay [1] (Conc 2.5 μM) is 117%. Besides, the activity at 5 µM in assay [1] (Conc 5 μM) is 53%. Further, the activity at 10 µM in assay [1] (Conc 10 μM) was found to be 12.9%. In assay [2], the activity at 10 µM came out at 161% and the Average was determined as 1.0686.

Turning to `CN(CCO)CCCn1nc(C2=C(c3cn(-c4cccnc4)c4ccccc34)C(=O)NC2=O)c2ccccc21` [Compound 198, 3-(1-{3-[(2-Hydroxyethyl)(methyl)amino]propyl}-1H-indazol-3-yl)-4-(1-pyridin-3-yl-1H-indol-3-yl)-1H-pyrrole-2,5-dione], the activity at 0.156 µM in assay [1] (Conc 0.156 μM) worked out at 82.2%. In assay [1] (Conc 0.313 μM), the activity at 0.313 µM worked out at 75.4%. For the same molecule, the activity at 0.625 µM in assay [1] (Conc 0.625 μM) came to 74.2%. Further, in assay [1] (Conc 1.25 μM), the activity at 1.25 µM stood at 89.9%. Further, the activity at 2.5 µM in assay [1] (Conc 2.5 μM) came to 103%. For the same molecule, the activity at 5 µM in assay [1] (Conc 5 μM) was found to be 106%. For the same molecule, the activity at 10 µM in assay [1] (Conc 10 μM) was found to be 101%. Also, in assay [2], the activity at 10 µM is 70.7% and the Average is reported as 1.1253.

For `O=C1NC(=O)C(c2nn(CCO)c3ccccc23)=C1c1cn(-c2cncnc2)c2ccccc12` [Compound 226, 3-[1-(2-Hydroxyethyl)-1H-indazol-3-yl]-4-(1-pyrimidin-5-yl-1H-indol-3-yl)-1H-pyrrole-2,5-dione], the activity at 0.156 µM in assay [1] (Conc 0.156 μM) was 77.4%. For the same molecule, the activity at 0.313 µM in assay [1] (Conc 0.313 μM) was 78.5%. For the same molecule, in assay [1] (Conc 0.625 μM), the activity at 0.625 µM was 80.5%. Besides, the activity at 1.25 µM in assay [1] (Conc 1.25 μM) turned out to be 73.9%. For the same molecule, the activity at 2.5 µM in assay [1] (Conc 2.5 μM) was determined as 64%. Also, the activity at 5 µM in assay [1] (Conc 5 μM) turned out to be 45.8%. For the same molecule, the activity at 10 µM in assay [1] (Conc 10 μM) stood at 29%. In assay [2], the activity at 10 µM was found to be 120% and the Average was determined as 1.6825.
